# Measurements published in patent US11553716B2, “Agricultural and horticultural fungicide composition” (Nippon Soda Co., Ltd., priority 2018, dated 2023).
# Where two headings read alike, the source gives them in different places.
# Tested on: cucumber gray mold disease fungi (Botrytis cinerea)
# Assay: Cucumber gray mold control test
# Assay type: in vivo
# Details: for pest or weed control at 0.025 ppm: Compound A 0.025 ppm alone (Compound B 0 ppm); for pest or weed control at 0.0063 ppm: Compound A 0.0063 ppm alone (Compound B 0 ppm)
# Protocol: The compound A and the compound B were dissolved in an organic solvent and a surfactant to obtain an emulsion. The emulsion was diluted to a prescribed concentration with water. The dilute emulsion was sprayed to cotyledons of cucumber (variety: Shimoshirazu). They were naturally dried at room temperature. Thereafter, a conidiospore suspension of cucumber gray mold disease fungi (Botrytis cinerea) was dropwise inoculated. It was placed in a dark room at 20° C. and high humidity for 4 days. Appearance of disease spots on the leaves and that on untreated leaves were compared and studied, and a control ratio was calculated. The test was carried out in duplicate.
# Based on the Colby's equation, a theoretical control ratio in the dilute emulsion prepared by using the compound A and the compound B together was calculated from a measured control ratio in the dilute emulsion prepared by using the compound A alone and that in the dilute emulsion prepared by using the compound B alone. Colby's equation: E=M+N−MN/100
# M: measured control ratio (%) in dilute emulsion prepared by using compound A alone
# N: measured control ratio (%) in dilute emulsion prepared by using compound B alone
# E: theoretical control ratio (%) in dilute emulsion prepared by using compound A and compound B together
# A control ratio of 0% means that disease spots of the same level as those of the non-treatment plot were observed, and a control ratio of 100% means that no disease spot was observed.
# The test was carried out in the same manner as in Example 1.
# [1] = Botrytis cinerea, 96 h, read-out: Cucumber gray mold control ratio, Table 4
# [2] = Botrytis cinerea, 96 h, read-out: Cucumber gray mold control ratio, Table 5
# [3] = Botrytis cinerea, 96 h, Table 4, Compound B 100 ppm alone (Compound A 0 ppm), read-out: Cucumber gray mold control ratio
# [4] = Botrytis cinerea, 96 h, Table 4, Compound B 0.4 ppm alone (Compound A 0 ppm), read-out: Cucumber gray mold control ratio
# [5] = Botrytis cinerea, 96 h, Table 4, Compound B 1.6 ppm alone (Compound A 0 ppm), read-out: Cucumber gray mold control ratio
compound,measurement,setting,value
"Cc1ccc2nc3sc(=O)sc3nc2c1 [Chinomethionat, chinomethionat]",pest or weed control at 100 µg/mL,"Botrytis cinerea, 96 h, read-out: Cucumber gray mold control ratio, Table 5, Compound B 100 ppm alone (Compound A 0 ppm)",20%
same,pest or weed control at 400 µg/mL,"Botrytis cinerea, 96 h, read-out: Cucumber gray mold control ratio, Table 5, Compound B 400 ppm alone (Compound A 0 ppm)",14%
"Cc1nc2c(F)c(F)ccc2cc1Oc1cccc(F)c1C(C)(C)O [Compound A, 2-{2-[(7,8-difluoro-2-methylquinolin-3-yl)oxy]-6-fluorophenyl}propan-2-ol]",pest or weed control at 0.025 ppm,"Botrytis cinerea, 96 h, read-out: Cucumber gray mold control ratio, Table 1",24%
same,pest or weed control at 0.1 ppm,"Botrytis cinerea, 96 h, read-out: Cucumber gray mold control ratio, Table 1, Compound A 0.1 ppm alone (Compound B 0 ppm)",89%
same,pest or weed control at 0.025 ppm,"Botrytis cinerea, 96 h, read-out: Cucumber gray mold control ratio, Table 2",17%
same,pest or weed control at 0.1 ppm,"Botrytis cinerea, 96 h, read-out: Cucumber gray mold control ratio, Table 2, Compound A 0.1 ppm alone (Compound B 0 ppm)",48%
same,pest or weed control at 0.025 ppm,"Botrytis cinerea, 96 h, read-out: Cucumber gray mold control ratio, Table 3",5%
same,pest or weed control at 0.1 ppm,"Botrytis cinerea, 96 h, read-out: Cucumber gray mold control ratio, Table 3, Compound A 0.1 ppm alone (Compound B 0 ppm)",53%
same,pest or weed control at 0.0063 ppm,[1],10%
same,pest or weed control at 0.025 ppm,[1],7%
same,pest or weed control at 0.1 ppm,"Botrytis cinerea, 96 h, read-out: Cucumber gray mold control ratio, Table 4, Compound A 0.1 ppm alone (Compound B 0 ppm)",26%
same,pest or weed control at 0.0063 ppm,[2],3%
same,pest or weed control at 0.025 ppm,[2],17%
same,pest or weed control at 0.1 ppm,"Botrytis cinerea, 96 h, read-out: Cucumber gray mold control ratio, Table 5, Compound A 0.1 ppm alone (Compound B 0 ppm)",64%
"C=CCNC(=O)c1c([Si](C)(C)C)sc(C)c1C [Compound B, silthiofam]",pest or weed control at 400 ppm,"Botrytis cinerea, 96 h, read-out: Cucumber gray mold control ratio, Table 1, Compound B 400 ppm alone (Compound A 0 ppm)",0%
same,pest or weed control at 6.3 ppm,"Botrytis cinerea, 96 h, read-out: Cucumber gray mold control ratio, Table 2, Compound B 6.3 ppm alone (Compound A 0 ppm)",0%
same,pest or weed control at 25 ppm,"Botrytis cinerea, 96 h, read-out: Cucumber gray mold control ratio, Table 2, Compound B 25 ppm alone (Compound A 0 ppm)",0%
same,pest or weed control at 100 ppm,"Botrytis cinerea, 96 h, read-out: Cucumber gray mold control ratio, Table 2, Compound B 100 ppm alone (Compound A 0 ppm)",5%
same,pest or weed control at 0.1 ppm,"Botrytis cinerea, 96 h, read-out: Cucumber gray mold control ratio, Table 3, Compound B 0.1 ppm alone (Compound A 0 ppm)",0%
same,pest or weed control at 0.4 ppm,"Botrytis cinerea, 96 h, read-out: Cucumber gray mold control ratio, Table 3, Compound B 0.4 ppm alone (Compound A 0 ppm)",0%
same,pest or weed control at 1.6 ppm,"Botrytis cinerea, 96 h, read-out: Cucumber gray mold control ratio, Table 3, Compound B 1.6 ppm alone (Compound A 0 ppm)",0%
"N#Cc1sc2c(=O)c3ccccc3c(=O)c=2sc1C#N [Dithianon, dithianon]",pest or weed control at 25 µg/mL,"Botrytis cinerea, 96 h, Table 4, Compound B 25 ppm alone (Compound A 0 ppm), read-out: Cucumber gray mold control ratio",13%
same,pest or weed control at 100 µg/mL,[3],10%
"CC#Cc1cc(C)nc(Nc2ccccc2)n1 [Mepanipyrim, mepanipyrim]",pest or weed control at 0.4 µg/mL,[4],19%
same,pest or weed control at 1.6 µg/mL,[5],29%
"CC1(C)CCC(Cc2ccc(Cl)cc2)C1(O)Cn1cncn1 (stereo not drawn) [Metconazole, metconazole]",pest or weed control at 0.4 µg/mL,[4],22%
same,pest or weed control at 1.6 µg/mL,[5],29%
"CN(C)[C@@H]1C(O)=C(C(N)=O)C(=O)[C@@]2(O)C(O)=C3C(=O)c4c(O)cccc4[C@@](C)(O)[C@H]3[C@H](O)[C@@H]12 [Oxytetracycline, oxytetracycline]",pest or weed control at 100 µg/mL,"Botrytis cinerea, 96 h, Table 5, Compound B 100 ppm alone (Compound A 0 ppm), read-out: Cucumber gray mold control ratio",18%
same,pest or weed control at 400 µg/mL,"Botrytis cinerea, 96 h, Table 5, Compound B 400 ppm alone (Compound A 0 ppm), read-out: Cucumber gray mold control ratio",21%
"CCCC1COC(Cn2cncn2)(c2ccc(Cl)cc2Cl)O1 (stereo not drawn) [Propiconazole, propiconazole]",pest or weed control at 1.6 µg/mL,"Botrytis cinerea, 96 h, Table 5, Compound B 1.6 ppm alone (Compound A 0 ppm), read-out: Cucumber gray mold control ratio",26%
same,pest or weed control at 6.3 µg/mL,"Botrytis cinerea, 96 h, Table 5, Compound B 6.3 ppm alone (Compound A 0 ppm), read-out: Cucumber gray mold control ratio",42%
"COC(=O)N(OC)c1ccccc1COc1ccn(-c2ccc(Cl)cc2)n1 [Pyraclostrobin, pyraclostrobin]",pest or weed control at 1.6 µg/mL,[5],23%
same,pest or weed control at 6.3 µg/mL,"Botrytis cinerea, 96 h, Table 4, Compound B 6.3 ppm alone (Compound A 0 ppm), read-out: Cucumber gray mold control ratio",46%
"Cc1cc(C)nc(Nc2ccccc2)n1 [Pyrimethanil, pyrimethanil]",pest or weed control at 0.4 µg/mL,[4],6%
same,pest or weed control at 1.6 µg/mL,[5],16%
"[H]/N=C(/N)N[C@H]1[C@H](O)[C@@H](O)[C@H](O[C@@H]2O[C@@H](C)[C@](O)(C=O)[C@H]2O[C@@H]2O[C@@H](CO)[C@H](O)[C@@H](O)[C@@H]2NC)[C@@H](N/C(N)=N\[H])[C@@H]1O [Streptomycin, streptomycin]",pest or weed control at 100 µg/mL,[3],12%
same,pest or weed control at 400 µg/mL,"Botrytis cinerea, 96 h, Table 4, Compound B 400 ppm alone (Compound A 0 ppm), read-out: Cucumber gray mold control ratio",13%
propineb,Cucumber gray mold control ratio,"Table 5, Compound B 100 ppm alone (Compound A 0 ppm)",27%
same,Cucumber gray mold control ratio,"Table 5, Compound B 400 ppm alone (Compound A 0 ppm)",33%
